Assay results: patent publication US11497747B2, “Compositions and methods for treating lung injuries associated with SARS-CoV-2 infections” (priority 2020, dated 2022)

How the values were obtained:
[1] = system: MAP3K2/MAP3K3; assay: MAP3K2/MAP3K3-mediated phosphorylation of p47phox; type: biochemical
[2] = system: acute lung injury (ALI); assay: mouse ALI/ARDS models (acid-induced direct insult, LPS-induced indirect insult); type: in vivo; conditions: dependent on MAP3K2/3 and ROS production
[3] = system: MAP3K2/MAP3K3; conditions: p47phox substrate; cited from earlier work
[4] = system: MAP3K2/MAP3K3; conditions: MEK5 substrate; cited from earlier work
[5] = system: neutrophils; conditions: cited from earlier work
[6] = in vivo; cited from earlier work
[7] = cited from earlier work
[8] = system: patients; conditions: cited from earlier work
[9] = system: coronavirus (Murine Hepatitis Virus Strain 1, MHV-1) induced mouse lung injury model; assay: survival and body weight loss in mouse coronavirus induced acute lung injury model; conditions: 3 mg/kgbw retro-orbital once daily for 5 days since 24 hr after virus inoculation
[10] = system: coronavirus (Murine Hepatitis Virus Strain 1, MHV-1) induced mouse lung injury model; assay: pulmonary permeability (FITC-albumin in BAL) in mouse coronavirus induced acute lung injury model
[11] = system: acute lung injury (ALI); conditions: cited from earlier work

## 5-({4-[(2,3-Dimethyl-2H-indazol-6-yl)methylamino]pyrimidin-2-yl}amino)-2-methylbenzenesulfonamide [pazopanib]
[1]
  affinity as p47phox substrate-specific inhibitor for MAP3K2 and 3: low nanomolar
[2]
  ameliorating ALI in the two mouse ALI/ARDS models: effective in ameliorating ALI
[3]
  inhibition of MAP3K2/MAP3K3-mediated phosphorylation of p47phox: low nM levels
[4]
  inhibition of other substrates of MAP3K2/MAP3K3 such as MEK5: μM levels
[5]
  ROS levels: elevates ROS levels
[6]
  bioavailability: 14-21%
  half-life: 30.9 to 31.9 h
[7]
  protein binding: > 99.5%
[8]; clinical trials
  ILD/pneumonitis reported in patients in the clinical trials: 0.1 % of patients
[8]; randomized RCC trial
  patients who developed a pneumothorax: [t]wo of 290
[8]; randomized STS trial (8/240)
  pneumothorax occurrence: 3%
[9]; FIG. 6
  survival rate: does not affect
[9]; FIG. 7
  body weight loss: does not affect
[10]; 2 doses at 3 mg/kgbw retro-orbital, 24 and 33 h after 6000 PFU MHV-1, FIG. 2
  pulmonary permeability: significantly reduce
[10]; 3 doses at 3 mg/kgbw retro-orbital, 6, 21 and 32 h after 5000 PFU MHV-1, FIG. 1
  pulmonary permeability: significantly reduce
[10]; one dose 3 mg/kgbw retro-orbital at 24 hr after virus inoculation, FIG. 3
  pulmonary permeability: significantly reduce
[10]; one dose 3 mg/kgbw retro-orbital at 48 hr after virus inoculation, FIG. 4
  pulmonary permeability: significantly reduce
[10]; one dose 3 mg/kgbw retro-orbital at 72 hr after virus inoculation, FIG. 5
  pulmonary permeability: negligible effect

## Cc1ccc(NC(=O)c2ccc(CN3CCN(C)CC3)cc2)cc1Nc1nccc(-c2cccnc2)n1 [imatinib]
[3]
  inhibition of MAP3K2/MAP3K3-mediated phosphorylation of p47phox: do not inhibit

## COC(=O)c1ccc2c(c1)NC(=O)/C2=C(\Nc1ccc(N(C)C(=O)CN2CCN(C)CC2)cc1)c1ccccc1 [nintedanib, Methyl (3Z)-3-{[(4-{methyl[(4-methylpiperazin-1-yl)acetyl]amino}phenyl)amino](phenyl)methylidene}-2-oxo-2,3-dihydro-1H-indole-6-carboxylate]
[3]
  inhibition of MAP3K2/MAP3K3-mediated phosphorylation of p47phox: also inhibits
[11]
  reduction of ALI in mouse models: has been shown to reduce ALI
